For assay [1], the target named is T1, Alpha-2A adrenergic receptor (Homo sapiens, UniProt P08913).
T1 sequence (P08913 whole entry): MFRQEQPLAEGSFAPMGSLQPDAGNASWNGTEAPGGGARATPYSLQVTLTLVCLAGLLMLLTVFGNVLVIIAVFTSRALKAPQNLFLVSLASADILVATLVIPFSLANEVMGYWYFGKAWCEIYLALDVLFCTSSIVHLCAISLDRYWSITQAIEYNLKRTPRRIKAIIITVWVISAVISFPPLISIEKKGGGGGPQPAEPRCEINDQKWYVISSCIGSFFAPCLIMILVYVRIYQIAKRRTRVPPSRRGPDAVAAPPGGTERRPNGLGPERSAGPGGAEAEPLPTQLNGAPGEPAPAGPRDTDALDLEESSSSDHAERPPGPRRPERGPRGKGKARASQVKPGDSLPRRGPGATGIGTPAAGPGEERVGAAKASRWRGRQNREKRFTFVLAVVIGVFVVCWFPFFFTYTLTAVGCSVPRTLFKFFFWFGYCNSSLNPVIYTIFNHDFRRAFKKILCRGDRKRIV

The target of another assay is Prothrombin (Homo sapiens, UniProt P00734). It counts as functional.
Assay [2] has as its target cGMP-inhibited 3',5'-cyclic phosphodiesterase 3A (Homo sapiens, UniProt Q14432). It counts as functional.
The target in assay [3] is Gamma-aminobutyric acid receptor subunit alpha-1 (Rattus norvegicus, UniProt P62813).
The next assay has as its target T2, Adenosine receptor A1 (Homo sapiens, UniProt P30542).
T2 sequence (P30542 whole entry): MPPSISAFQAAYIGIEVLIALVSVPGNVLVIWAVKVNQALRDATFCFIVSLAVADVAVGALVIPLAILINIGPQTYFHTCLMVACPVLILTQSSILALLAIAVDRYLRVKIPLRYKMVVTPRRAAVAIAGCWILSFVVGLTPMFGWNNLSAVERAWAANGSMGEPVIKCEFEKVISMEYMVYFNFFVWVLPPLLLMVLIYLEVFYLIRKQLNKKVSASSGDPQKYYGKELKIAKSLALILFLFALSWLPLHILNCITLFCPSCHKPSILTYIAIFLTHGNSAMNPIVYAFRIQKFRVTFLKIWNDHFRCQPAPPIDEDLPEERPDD

Assay [4] has as its target T3, Thromboxane A2 receptor (Homo sapiens, UniProt P21731).
T3 sequence (P21731 whole entry): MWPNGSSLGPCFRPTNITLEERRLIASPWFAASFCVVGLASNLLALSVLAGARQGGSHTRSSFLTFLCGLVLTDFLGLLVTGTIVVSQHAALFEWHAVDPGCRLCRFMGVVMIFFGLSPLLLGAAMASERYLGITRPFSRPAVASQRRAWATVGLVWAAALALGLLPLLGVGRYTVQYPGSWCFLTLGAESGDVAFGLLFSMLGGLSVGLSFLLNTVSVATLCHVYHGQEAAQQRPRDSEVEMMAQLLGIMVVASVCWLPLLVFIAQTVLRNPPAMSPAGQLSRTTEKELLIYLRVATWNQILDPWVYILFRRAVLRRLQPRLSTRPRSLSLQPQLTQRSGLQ
It counts as functional, cell-based.

The target of assay [5] is T3, Thromboxane A2 receptor. It counts as functional, cell-based. This is another data set of the same source.
Another assay has as its target T4, Progesterone receptor (Homo sapiens, UniProt P06401).
T4 sequence (P06401 whole entry): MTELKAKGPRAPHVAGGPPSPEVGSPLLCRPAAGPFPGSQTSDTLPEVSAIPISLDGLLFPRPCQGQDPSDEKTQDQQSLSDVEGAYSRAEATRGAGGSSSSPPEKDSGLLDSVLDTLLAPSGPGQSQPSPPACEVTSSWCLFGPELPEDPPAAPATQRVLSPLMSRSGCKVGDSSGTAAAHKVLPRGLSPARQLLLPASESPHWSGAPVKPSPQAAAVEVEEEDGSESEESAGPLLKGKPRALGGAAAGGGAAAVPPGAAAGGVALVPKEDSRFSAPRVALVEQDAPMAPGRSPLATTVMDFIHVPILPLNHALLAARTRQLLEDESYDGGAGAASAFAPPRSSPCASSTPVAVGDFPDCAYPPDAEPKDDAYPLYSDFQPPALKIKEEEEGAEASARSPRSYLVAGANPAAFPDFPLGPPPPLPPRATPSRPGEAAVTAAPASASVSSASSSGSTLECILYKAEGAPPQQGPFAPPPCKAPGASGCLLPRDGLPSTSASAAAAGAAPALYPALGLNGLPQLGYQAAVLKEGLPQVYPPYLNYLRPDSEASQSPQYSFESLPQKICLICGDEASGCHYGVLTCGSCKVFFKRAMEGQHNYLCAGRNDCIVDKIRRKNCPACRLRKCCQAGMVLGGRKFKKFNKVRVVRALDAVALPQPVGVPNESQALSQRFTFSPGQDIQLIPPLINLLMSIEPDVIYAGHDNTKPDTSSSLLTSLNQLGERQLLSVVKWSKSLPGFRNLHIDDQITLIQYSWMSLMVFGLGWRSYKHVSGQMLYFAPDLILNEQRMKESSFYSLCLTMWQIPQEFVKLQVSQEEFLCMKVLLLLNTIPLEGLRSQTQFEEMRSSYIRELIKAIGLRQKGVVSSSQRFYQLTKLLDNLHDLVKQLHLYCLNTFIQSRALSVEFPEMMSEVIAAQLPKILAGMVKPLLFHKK

The next assay has as its target Histamine H3 receptor (Homo sapiens, UniProt Q9Y5N1).
The target of assay [6] is Hydroxycarboxylic acid receptor 2 (Homo sapiens, UniProt Q8TDS4).
The next assay concerns the target D(1B) dopamine receptor (Homo sapiens, UniProt P21918).
The target in a further assay is T5, Substance-K receptor (Homo sapiens, UniProt P21452).
T5 sequence (P21452 whole entry): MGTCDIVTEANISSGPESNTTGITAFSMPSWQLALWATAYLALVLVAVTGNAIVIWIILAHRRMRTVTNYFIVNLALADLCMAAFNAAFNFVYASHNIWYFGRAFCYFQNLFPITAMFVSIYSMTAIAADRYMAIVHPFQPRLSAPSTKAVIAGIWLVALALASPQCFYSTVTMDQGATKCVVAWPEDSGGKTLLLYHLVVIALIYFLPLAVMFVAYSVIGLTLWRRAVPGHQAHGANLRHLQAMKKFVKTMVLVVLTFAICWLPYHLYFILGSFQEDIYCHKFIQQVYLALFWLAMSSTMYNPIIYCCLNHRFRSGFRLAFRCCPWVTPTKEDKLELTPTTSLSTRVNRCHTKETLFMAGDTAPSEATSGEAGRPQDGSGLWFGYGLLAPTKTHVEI

Assay [7] has as its target Rod cGMP-specific 3',5'-cyclic phosphodiesterase subunit alpha (Homo sapiens, UniProt P16499). It counts as functional.
Also: assay procedure not described here.

Chain of Histamine H3 receptor (Q9Y5N1 whole entry): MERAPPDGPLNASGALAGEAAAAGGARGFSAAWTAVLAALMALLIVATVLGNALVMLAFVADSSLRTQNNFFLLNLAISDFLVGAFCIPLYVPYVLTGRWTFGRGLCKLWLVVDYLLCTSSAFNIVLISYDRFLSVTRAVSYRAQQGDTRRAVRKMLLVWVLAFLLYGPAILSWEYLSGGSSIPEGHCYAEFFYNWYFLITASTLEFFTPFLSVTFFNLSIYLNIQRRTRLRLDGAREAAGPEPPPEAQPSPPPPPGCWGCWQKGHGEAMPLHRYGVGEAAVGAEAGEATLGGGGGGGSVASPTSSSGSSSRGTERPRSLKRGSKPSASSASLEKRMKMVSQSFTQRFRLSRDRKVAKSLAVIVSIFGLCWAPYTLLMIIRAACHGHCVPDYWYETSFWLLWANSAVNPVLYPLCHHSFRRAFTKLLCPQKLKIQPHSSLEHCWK
Chain of cGMP-inhibited 3',5'-cyclic phosphodiesterase 3A (Q14432 whole entry): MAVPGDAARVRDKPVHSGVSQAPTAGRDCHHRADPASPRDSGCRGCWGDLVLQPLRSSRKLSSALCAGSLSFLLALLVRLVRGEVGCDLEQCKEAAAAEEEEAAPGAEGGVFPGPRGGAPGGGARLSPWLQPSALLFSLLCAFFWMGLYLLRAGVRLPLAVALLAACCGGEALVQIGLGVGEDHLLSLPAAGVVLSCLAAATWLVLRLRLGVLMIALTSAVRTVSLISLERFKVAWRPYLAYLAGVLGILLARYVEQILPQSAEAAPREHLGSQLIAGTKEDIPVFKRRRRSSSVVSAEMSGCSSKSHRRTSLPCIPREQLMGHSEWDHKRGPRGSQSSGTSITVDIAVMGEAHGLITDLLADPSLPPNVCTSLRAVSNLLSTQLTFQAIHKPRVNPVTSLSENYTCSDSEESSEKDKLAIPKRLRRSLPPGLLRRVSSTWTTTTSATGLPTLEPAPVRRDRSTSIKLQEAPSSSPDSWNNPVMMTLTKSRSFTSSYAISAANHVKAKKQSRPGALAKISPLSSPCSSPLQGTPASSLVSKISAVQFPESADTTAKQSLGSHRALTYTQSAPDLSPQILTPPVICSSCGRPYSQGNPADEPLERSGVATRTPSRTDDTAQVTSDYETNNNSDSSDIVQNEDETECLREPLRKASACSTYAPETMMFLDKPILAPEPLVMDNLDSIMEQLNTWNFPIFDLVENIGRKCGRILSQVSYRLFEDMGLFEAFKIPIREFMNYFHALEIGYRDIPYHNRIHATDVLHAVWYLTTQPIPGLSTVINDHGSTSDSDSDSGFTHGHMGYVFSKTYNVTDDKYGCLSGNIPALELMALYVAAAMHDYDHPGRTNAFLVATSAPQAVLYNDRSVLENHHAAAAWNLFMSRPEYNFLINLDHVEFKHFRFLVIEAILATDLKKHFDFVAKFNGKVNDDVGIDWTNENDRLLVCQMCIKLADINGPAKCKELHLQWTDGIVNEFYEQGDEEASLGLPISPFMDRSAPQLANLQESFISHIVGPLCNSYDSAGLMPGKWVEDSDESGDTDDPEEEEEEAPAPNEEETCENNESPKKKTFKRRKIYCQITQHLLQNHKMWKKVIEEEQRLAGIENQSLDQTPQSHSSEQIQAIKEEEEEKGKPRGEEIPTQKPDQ
Chain of D(1B) dopamine receptor (P21918 whole entry): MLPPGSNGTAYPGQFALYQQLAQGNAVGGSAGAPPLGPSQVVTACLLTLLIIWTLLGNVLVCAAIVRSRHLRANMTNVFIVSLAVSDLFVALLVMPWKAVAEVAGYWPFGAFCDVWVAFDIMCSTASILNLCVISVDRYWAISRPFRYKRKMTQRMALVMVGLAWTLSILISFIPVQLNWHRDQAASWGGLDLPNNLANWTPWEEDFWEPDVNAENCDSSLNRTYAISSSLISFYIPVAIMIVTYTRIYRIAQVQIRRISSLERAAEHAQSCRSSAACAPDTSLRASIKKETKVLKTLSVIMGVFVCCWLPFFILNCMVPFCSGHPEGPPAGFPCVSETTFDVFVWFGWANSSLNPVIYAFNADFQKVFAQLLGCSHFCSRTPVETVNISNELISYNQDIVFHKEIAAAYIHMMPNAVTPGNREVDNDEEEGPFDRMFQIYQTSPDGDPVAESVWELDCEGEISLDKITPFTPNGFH
Chain of Hydroxycarboxylic acid receptor 2 (Q8TDS4 whole entry): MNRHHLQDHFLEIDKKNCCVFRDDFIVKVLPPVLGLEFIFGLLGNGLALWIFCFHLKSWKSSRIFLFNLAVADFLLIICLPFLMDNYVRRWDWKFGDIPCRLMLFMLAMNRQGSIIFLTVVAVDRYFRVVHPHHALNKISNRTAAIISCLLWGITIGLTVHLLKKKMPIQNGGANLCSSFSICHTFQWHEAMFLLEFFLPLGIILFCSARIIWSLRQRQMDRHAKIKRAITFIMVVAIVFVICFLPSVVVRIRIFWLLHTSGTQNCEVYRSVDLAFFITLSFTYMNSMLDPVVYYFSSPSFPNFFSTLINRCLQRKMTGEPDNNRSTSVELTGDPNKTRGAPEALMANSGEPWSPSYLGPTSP
Chain of Gamma-aminobutyric acid receptor subunit alpha-1 (P62813 whole entry): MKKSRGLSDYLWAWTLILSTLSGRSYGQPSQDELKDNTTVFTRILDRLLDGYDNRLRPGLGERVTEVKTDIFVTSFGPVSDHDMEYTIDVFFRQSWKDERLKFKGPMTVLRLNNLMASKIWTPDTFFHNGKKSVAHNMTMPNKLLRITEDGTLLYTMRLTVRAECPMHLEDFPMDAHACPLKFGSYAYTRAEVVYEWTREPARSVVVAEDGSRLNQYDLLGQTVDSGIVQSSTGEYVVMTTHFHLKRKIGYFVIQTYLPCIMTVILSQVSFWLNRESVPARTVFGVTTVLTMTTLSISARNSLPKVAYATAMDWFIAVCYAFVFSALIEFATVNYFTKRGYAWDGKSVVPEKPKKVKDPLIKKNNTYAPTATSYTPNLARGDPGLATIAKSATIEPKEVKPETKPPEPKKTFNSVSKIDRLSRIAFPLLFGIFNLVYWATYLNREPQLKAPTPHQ
Chain of Rod cGMP-specific 3',5'-cyclic phosphodiesterase subunit alpha (P16499 whole entry): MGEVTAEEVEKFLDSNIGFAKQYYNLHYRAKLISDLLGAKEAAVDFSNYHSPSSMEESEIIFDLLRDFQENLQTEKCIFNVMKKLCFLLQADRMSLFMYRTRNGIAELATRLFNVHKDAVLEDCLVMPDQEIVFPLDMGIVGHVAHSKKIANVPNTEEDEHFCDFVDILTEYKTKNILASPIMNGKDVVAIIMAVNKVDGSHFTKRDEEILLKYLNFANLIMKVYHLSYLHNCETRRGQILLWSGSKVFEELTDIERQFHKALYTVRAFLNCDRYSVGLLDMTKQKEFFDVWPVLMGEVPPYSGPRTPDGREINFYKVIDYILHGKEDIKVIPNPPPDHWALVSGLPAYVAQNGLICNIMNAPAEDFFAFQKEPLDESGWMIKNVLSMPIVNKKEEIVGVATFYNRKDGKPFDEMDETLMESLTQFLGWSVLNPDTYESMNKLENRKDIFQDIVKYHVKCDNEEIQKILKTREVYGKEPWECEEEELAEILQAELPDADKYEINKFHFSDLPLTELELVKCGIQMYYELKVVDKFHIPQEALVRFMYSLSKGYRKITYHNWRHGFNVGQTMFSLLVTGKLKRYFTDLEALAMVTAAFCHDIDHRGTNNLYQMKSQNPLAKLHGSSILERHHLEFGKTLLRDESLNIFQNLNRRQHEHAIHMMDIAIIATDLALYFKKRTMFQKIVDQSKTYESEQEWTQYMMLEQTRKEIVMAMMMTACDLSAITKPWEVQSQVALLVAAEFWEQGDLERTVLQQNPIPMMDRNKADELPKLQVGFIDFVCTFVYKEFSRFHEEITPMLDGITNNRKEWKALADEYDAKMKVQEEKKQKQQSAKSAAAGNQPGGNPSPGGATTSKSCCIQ

As for `NCCCC(O)(P(=O)(O)O)P(=O)(O)O` [ALENDRONIC ACID], the AC50 (in assay [1]; on Prothrombin; in assay [2]; in assay [3]; at Adenosine receptor A1; on Thromboxane A2 receptor [4]) was more than 30 µM in each case. Further, the AC50 on Thromboxane A2 receptor [5], on Progesterone receptor and on Histamine H3 receptor was more than 30 µM throughout.

On to `CCCC(C)(COC(N)=O)COC(=O)NC(C)C` (stereo not given) [CARISOPRODOL], for which the AC50 in [6] is more than 10 µM.

Compound `CC(=O)OCC(CCn1cnc2cnc(N)nc21)COC(C)=O` [FAMCICLOVIR] returned an AC50 in assay [6] of more than 10 µM.

In the case of `COC1=C(OC)C(=O)C(CCCCCCCCCCO)=C(C)C1=O` [IDEBENONE], the AC50 (on D(1B) dopamine receptor; on Substance-K receptor; in [7]) was more than 10 µM in each case.

Regarding `O=C1CN=C(c2ccccc2)c2cc(Cl)ccc2N1` [NORDAZEPAM], the AC50 (on D(1B) dopamine receptor; at Substance-K receptor; in [7]) was more than 10 µM throughout.

Turning to `CC(CCc1ccccc1)NC(C)C(O)c1ccc(O)cc1` (stereo not given) [NYLIDRIN], the AC50 (at D(1B) dopamine receptor; on Substance-K receptor; in [7]) was more than 10 µM each time.

For the compound `O=C1Nc2ccc(Cl)cc2C(c2ccccc2)=NC1O` (stereo not given) [OXAZEPAM], the concentration at half-maximal activity (AC50) (on D(1B) dopamine receptor; on Substance-K receptor; in [7]) was more than 10 µM throughout.

Regarding `C[n+]1ccccc1/C=N/O` [PRALIDOXIME], the concentration at half-maximal activity (AC50) (in [1]; on Prothrombin; in assay [2]; in assay [3]; on Adenosine receptor A1; at Thromboxane A2 receptor [4]) was more than 30 µM throughout. The AC50 on Thromboxane A2 receptor [5], at Progesterone receptor and at Histamine H3 receptor was more than 30 µM each time.

Consider `CC(C)CC(N(C)C)C1(c2ccc(Cl)cc2)CCC1` (stereo not given) [SIBUTRAMINE], for which the AC50 in assay [6] is more than 10 µM.

`N#C[C@@H]1CCCN1C(=O)CNC12CC3CC(CC(O)(C3)C1)C2` [VILDAGLIPTIN]: the AC50 (at D(1B) dopamine receptor; on Substance-K receptor; in [7]) was more than 10 µM in each case.

COLISTIN: the AC50 (in assay [1]; on Prothrombin; in assay [2]; in [3]; on Adenosine receptor A1; on Thromboxane A2 receptor [4]) was more than 30 µM throughout. Besides, the AC50 at Thromboxane A2 receptor [5], at Progesterone receptor and on Histamine H3 receptor was more than 30 µM in each case.

Source of the values: ChEMBL document CHEMBL5291721, “A preclinical secondary pharmacology resource illuminates target-adverse drug reaction associations of marketed drugs” (Nat Commun, 2023).
